Experimental data from ChEMBL document CHEMBL1770102, “Identification of novel potential antibiotics for tuberculosis by in silico structure-based drug screening” (Eur J Med Chem, 2011).
The source made the active and inactive calls. The rule behind the calls is not given here.

Columns and labels:
[1] = tested on: Mycobacterium vanbaalenii; test: Antibacterial activity against Mycobacterium vanbaalenii assessed as growth inhibition at 30 uM after 72 hrs by microplate reader; type: functional; details: Mycolicibacterium vanbaalenii
[2] = tested on: Mycobacterium vanbaalenii; test: Antibacterial activity against Mycobacterium vanbaalenii assessed as growth inhibition at 30 uM after 6 hrs by microplate reader; type: functional; details: Mycolicibacterium vanbaalenii
SH-SY5Y = test: Cytotoxicity against human SH-SY5Y cells at 30 uM after 2 days by measuring absorbance at 460 nm; type: functional, cell-based
MDCK = test: Cytotoxicity against dog MDCK cells at 30 uM after 2 days by measuring absorbance at 460 nm; type: cell-based, Canis lupus familiaris; details: 48 h
Rhodococcus opacus [3] = test: Antibacterial activity against Rhodococcus opacus assessed as growth inhibition at 50 uM after 72 hrs by microplate reader; type: functional
[4] = tested on: Mycobacterium tuberculosis; test: Antibacterial activity against Mycobacterium tuberculosis assessed as inhibition of cell growth after 24 hrs; type: functional, organism-based
Rhodococcus opacus [5] = test: Antibacterial activity against Rhodococcus opacus assessed as growth inhibition at 30 uM after 72 hrs by microplate reader; type: functional
Escherichia coli [6] = test: Toxicity against Escherichia coli JM109; type: organism-based; details: in vivo
Escherichia coli [7] = test: Toxicity against Escherichia coli BL21
[8] = tested on: Mycobacterium vanbaalenii; test: Antibacterial activity against Mycobacterium vanbaalenii assessed as inhibition of cell growth after 24 hrs; type: functional, Mycolicibacterium vanbaalenii
Rhodococcus opacus [9] = test: Antibacterial activity against Rhodococcus opacus assessed as growth inhibition at 100 ug/ml after 72 hrs by microplate reader; type: functional

`COC(=O)c1ccc(Cl)c(NC(=O)CN(c2ccc(OCc3ccccc3)cc2)S(C)(=O)=O)c1` was tested, and the “growth inhibition (GI)” value [1] was “Active” and the “growth inhibition (GI)” value [2] was “Active”.
In the case of `COc1ccc(OC)c(NS(=O)(=O)c2ccc(NC(=O)CN3C(=O)c4cccc5cccc3c45)cc2)c1`, the Activity (SH-SY5Y) is reported as “Toxic”, the Activity (MDCK) is reported as “Toxic” and the “growth inhibition (GI)” value [1] is reported as “Active”. The “growth inhibition (GI)” value [2] was “Active”.
For `NNC(=O)c1ccncc1` [ISONIAZID], the “growth inhibition (GI)” value (Rhodococcus opacus [3]) was “Active”, the “growth inhibition (GI)” value [1] was “Active” and the IC50 [4] was 15 µM.
With `COc1cc2c(cc1NC(=O)CSc1nnc(-c3ccccc3C)n1Cc1ccoc1)oc1ccccc12` the “growth inhibition (GI)” value (Rhodococcus opacus [5]) was “Active”, the Activity (Escherichia coli [6]) was “Non-toxic” and the Activity (SH-SY5Y) was “Not toxic”. For the same compound, the Activity (Escherichia coli [7]) was “Non-toxic”, the Activity (MDCK) was “Non-toxic” and the IC50 [8] was 5.3 µM. The “growth inhibition (GI)” value [1] was “Active” and the “growth inhibition (GI)” value [2] was “Active”.
For `CN(C(=O)CSc1nc(Nc2ccccc2)nc(N2CCOCC2)n1)C12CC3CC(CC(C3)C1)C2`, the “growth inhibition (GI)” value [1] was “inactive” and the “growth inhibition (GI)” value [2] was “Active”.
In the case of `O=S(=O)(NCCc1ccccc1)c1cccc2c(S(=O)(=O)NCCc3ccccc3)cccc12`, the “growth inhibition (GI)” value [2] is reported as “inactive”.
For `CC1(C)S[C@@H]2[C@H](NC(=O)[C@H](N)c3ccccc3)C(=O)N2[C@H]1C(=O)O`, the “growth inhibition (GI)” value (Rhodococcus opacus [9]) was “Active”.
